Source: patent US11358939B2, “1,4-benzodiazepin-2-one derivatives and use thereof” (priority 2017, dated 2022)

How the values were obtained:
[1] = system: writhes induced by intraperitoneal acetic acid; assay: Analgesic activity, acetic acid-induced writhing test (peripheral pain model); assay type: in vivo
Experimental: Assessment of analgesic activity was performed in a model of peripheral pain based on chemical pain induced by intraperitoneal administration of acetic acid, leading to involuntary contractions of abdominal muscles, termed “writhes”, accompanied by hind leg extension and spine arching. The writhes were induced by 0.75% solution of acetic acid, which was administered intraperitoneally 40 min after intraperitoneal administration of test compounds in 0.001-5 mg/kg dose range. […] Analgesic activity was assessed by the ability of the compounds to reduce the number of writhes in test group compared to control group, and indicated as percentage using the following formula: AA=(Wc−Wt/Wc)×100%,
where AA—analgesic activity in %;
Wc—average number of writhes in control group;
Wt—average number of writhes in test group
Test compounds were studied in comparison with the reference drug sodium diclofenac in 10 mg/kg dose. ED50 was calculated using Prozorovsky method.

[2] = system: mice in acute confined space hypoxia; assay: Antihypoxic activity, acute confined space hypoxia (CSH); assay type: in vivo; details: 10 mg/kg
Experimental: (§1) Studies of pharmacological activity of 3-arylamino-1,3-dihydro-2H-benzo[e][1,4]diazepin-2-ones, namely, their action of appetite, assessment of antihypoxic and antidepressant activity was performed in white male rats with body mass 150-180 g and male mice with body mass 18-22 g. The animals were kept on a standard laboratory diet and natural lighting. Animals of control group were given a water-Tween suspension. Test compounds were administered in a suspension with Tween-80 Reference drugs were the hormone leptin, in 0.0002 mg/kg dose, and a well-known antidepressant amitriptyline (solution for injections in 1 ml vials. Test compounds and the water-Tween suspension were administered in a dose of 0.2 ml/100 g of rat body mass.
Screening of antihypoxic activity was performed using the model of acute confined space hypoxia (CSH). CSH was modeled by placing mice into isolated sealed chambers (V=200 ml). Each group included 10 animals. The observation lasted until the death of the animals. Antihypoxic effect was assessed by the survival duration (in min) compared to control, which was taken as 100%, and according to the calculation of antihypoxic protection ratio (Rpr):Rpr=Tt/Tc, where Tt—average animal survival time in the test group; Tc—average animal survival time in the control group.

food consumption by rats [3] = assay: Action on appetite, Anorexia method (liquid food consumption); assay type: in vivo; details: for Amount of consumed liquid food during 30 min in ml / Food consumption, % of control: dose 0,1 mg/kg intraperitoneally
Experimental: as §1
The action of the compounds on rat appetite was studied using «norexia» method. For 2 weeks in an experimental equipment the rats were conditioned to consume liquid food. Then a water-Tween suspension of test articles was administered intraperitoneally to conditioned animals one day before the experiment. After 40 minutes the animals were allowed access to liquid food and the amount of consumed food (in ml) of every rat was registered every 30 minutes for 3 hours. The next day after 2 hours of deprivation the rats in control group were administered a water-Tween suspension intraperitoneally, while the test group was administered the test articles. After 40 minutes the animals were allowed access to liquid food and the amount of consumed food (in ml) of every rat was registered every 30 minutes for 3 hours. Then all food consumption values for each rat were summed and compared to control values. The control group has consumed on average 7 ml of liquid food per 30 minutes. The effect was calculated in percentage compared to control.

[4] = system: writhes induced by intraperitoneal acetic acid; details: prior art section; cited from earlier work
immobility time of mice = assay: Antidepressant activity, Porsolt forced swimming test; assay type: in vivo; details: 0.0002 mg/kg
Experimental: as §1
Antidepressant activity was studied using «Porsolt forced swimming test» [15], which models stress in mice by forcing them to swim in a narrow translucent cylinder, filled by ⅓ volume with water at 23-25° C. temperature. Antidepressant action is assessed by the reduction in immobility time, when the animals have minimal amount of paddling, in seconds or percentage compared to control. The animal behavior was registered for 4 minutes after acclimatization for 2 minutes.

[5] = system: mice in acute confined space hypoxia; details: reference drug, ref. [14]; cited from earlier work
food consumption by rats [6] = assay: Action on appetite, Anorexia method (liquid food consumption); assay type: in vivo; details: leptin dose 20 nM

## CCCOC1N=C(c2ccccc2)c2cc([N+](=O)[O-])ccc2N(CC(=O)OC)C1=O (stereo not drawn) [Compound 48, Methyl-2-(7-nitro-2-oxo-5-phenyl-3-propoxy-2,3-dihydro-1H-benzo[e][1,4]di-azepin-1-yl)acetate]
other
  melting point: 214 to 215 °C
[1]; compounds Ia, 1 mg/kg intraperitoneally, 40 min before 0.75% acetic acid
  Writhing inhibition, % of control in 1 mg/kg dose: 85%
[1]; ip, intraperitoneal, Prozorovsky method
  ED50: 0.058 ± 0.015 mg/kg

## O=C1Nc2ccc([N+](=O)[O-])cc2C(c2ccccc2)=NC1Nc1ccc(Cl)cc1 (stereo not drawn) [Compound 250]
[2]
  Increase of mice survival time during acute confined space hypoxia compared to control: 70%
Food consumption by rats [3]
  Amount of consumed liquid food during 30 min in ml: 6,3 ± 3,2 ml
  Food consumption, % of control: 85%

## O=C1Nc2ccc([N+](=O)[O-])cc2C(c2ccccc2F)=NC1Nc1cccc(Cl)c1 (stereo not drawn) [Compound 357]
[2]
  Increase of mice survival time during acute confined space hypoxia compared to control: 40.5%
Food consumption by rats [3]
  Amount of consumed liquid food during 30 min in ml: 5,9 ± 2,2 ml
  Food consumption, % of control: 80%

## CCOC1N=C(c2ccccc2)c2cc(Br)ccc2N(CC(=O)OC)C1=O (stereo not drawn) [methyl-2-(7-bromo-3-etoxy-2-oxo-5-phenyl-2,3-dihydro-1H-benzo[e][1,4]diazepin-1-yl) acetate]
[4]
  ED50, analgesic activity in acetic acid-induced writhing test (prior art): 0.47 ± 0.15 mg/kg

## leptin
Immobility time of mice
  Reduction of immobility time compared to control: 14%
[5]
  Antihypoxic properties: no antihypoxic properties
Food consumption by rats [3]; leptin 0.0002 mg/kg
  Reduction in appetite and food consumption compared to control: 63%
Food consumption by rats [6]
  Amount of consumed liquid food during 30 min in ml: 2,5 ± 0,2 ml
  Food consumption, % of control: 37%
